Measurements as given in patent publication US20050209104A1, “Dinoflagellate karlotoxins, methods of isolation and uses thereof” (priority 2002, published 2005).

Experiments:
[1] = tested on: rainbow trout erythrocytes
Experimental: The filtrate from water samples collected on Feb. […] Environmental water samples were allowed to thaw to room temperature and passed through a Sep-Pak Plus tC18 disposable cartridge (Waters Corp., Milford Mass.), attached to a vacuum manifold. The column was pre-equilibrated with methanol (20 ml) followed by H2O (20 ml). The cartridges were eluted with the following concentrations of MeOH/H2O: 100% H2O, 40%, 60%, 80%, and 100% MeOH (12 ml ea^−1). An aliquot of each elution was diluted, using Tris buffer +CaCl2, to give final dilutions ranging from 6 to 60% of original concentrations. […] The occurrence of hemolytic activity was determined by the absorbance of released hemoglobin, measured at 540 nm. Saponin (10 μg) served as a positive hemolysin control. Treatments were run in quadruplicate.
A hemolytic assay based on the lysis of fish erythrocytes was utilized to screen for bioactive materials. Cultures and culture fractions that were positive in the hemolytic assay were tested further using assays for ichthyotoxicity and cytotoxicity.
Blood was extracted from the caudal vein of rainbow trout (Oncorhynchus mykis) provided by the Center of Marine Biotechnology's Aquaculture Research Center. Needles were heparin (Sigma Chemical Co., St. Louis Mo.) treated and 10 units ml^−1 of additional heparin was added to whole blood samples to prevent clotting. […] Buffer pH was adjusted to 7.4 at 10° C. with 1N HCl, then filter sterilized (0.22 μm). […] Suspensions were stored at 4° C. for no longer than 10 days.
Hemolytic assays were performed by diluting test material in Tris buffer +CaCl2 (100 μl total) and adding this to a 5% erythrocyte suspension (100 μl). […] Assays were incubated on an orbital shaker (80-100 rpm) at 20° C. for 1 hour. Plates were then centrifuged at 2500 g for 5 min. and the supernatant (100 μl) was transferred to another flat bottom 96 well polystyrene plate, where the absorbance of released hemoglobin was read at 540 nm. Saponin (10 μg) (from Quillaja bark; Sigma Chemical Co., St. Louis Mo.) was used as a positive hemolysin control All treatments were run in quadruplicate.
LC50values and ranges were determined by Probit analysis (SPSS Base 10.0, SPSS Inc., Chicago Ill.).
Blood was extracted from the caudal vein of rainbow trout (Oncorhynchus mykis). […] Buffer pH was adjusted to 7.4 at 10° C. with 1N HCl, then filter sterilized (0.22 um). […] Blood suspensions were stored at 4° C. for no longer than 10 days.
Hemolysis assays were performed by diluting test material in Tris buFFer +CaCl2 (100 ul) and adding this to 100 ul of a 5% erythrocyte suspension for a total assay volume of 200 ul. […] Plates were incubated on an orbital shaker (80-100 rpm) at 20° C. for 1 hour. Plates were then centrifuged at 2000 g for 5 min. and the supernatant (100 ul) was transferred to a new flat bottom 96 well polystyrene plate, where the absorbance of released hemoglobin was read at 540 nm. Saponin (from Quillaja bark; Sigma Chemical Co., St. Louis Mo.) was used as a positive hemolysin control. Percent hemolysis (0-100%) was calculated from comparison to un-treated controls and samples treated with 10 ug saponin. All treatments were run in quadruplicate.
Hemolytic LC50 values were calculated from a dilution series of KmTx 2 and amphotericin B. LC50 values and ranges were determined by Probit analysis using a SPSS Base 10.0 statistical software package (SPSS Inc., Chicago, Ill.).

Oxyrrhis marina = experiment: Effect of KmTx 2 on a potential grazer; format: cell-based
Experimental: Oxyrrhis marina (1.7×10^4 cells/mil) and K. micrum (CCMP 2282) (3.5×10^4 cells/ml) were exposed, in triplicate, to 0, 0.1, 0.5, and 1 μg/ml KmTx 2 in six well non-tissue culture treated polystyrene plates (Becton Dickinson Labware, Lincoln Park N.J.). The O. marina culture was obtained through single cell isolation from a Chesapeake Bay water sample and was maintained in 15 psu artificial sea water (Instant Ocean Brand) using Rhodomonas sp. (CCMP 767) as a food source. O. marina was starved for 24 hours prior to exposures to reduce the number of food organisms. K. micrum (CCMP 2282) was maintained in 12 psu artificial sea water (Instant Ocean Brand) with f/2 nutrient mixture plus 1% soil extract as described in Deeds et al. (2002). Cell densities were measured at 1 and 24 hours using a Coulter Multisizer II particle counter by enumerating the 7-20 μm and the […] size fractions, respectively, for K. micrum and O. marina using a Coulter Accucomp software package (Coulter Electronics Limited, Miami Fla.). Significant differences (p<0.05) among mean cell numbers for different treatments were tested for using one-way analysis of variance with Scheffe's post hoc test using SPSS Base 10.0 statistical software (SPSS Inc., Chicago, Ill.).
Hemolytic activity remaining in solution was measured at 1 hour by mixing 100 μl of each treatment with an equal volume of diluted rainbow trout RBC suspension as described above in Example 3.

## C=C(CC[C@H](O)[C@H]1O[C@H](C[C@@H](O)[C@H](O)[C@H](C)CCC[C@@H](O)[C@H](O)[C@H](O)[C@@H](C)CC[C@@H](O)[C@H](O)[C@H](C)C[C@@H](O)CCC[C@@H](O)CCC[C@@H](O)/C=C/C[C@@H](O)CO)[C@@H](O)[C@@H](O)[C@@H]1O)[C@H](O)[C@H](O)[C@@H]1C[C@H](O)[C@H](O)[C@@H]([C@H](O)[C@@H](O)/C=C/CCCCCCCC/C=C/C=C/Cl)O1 [KmTx 2]
[1]; probit analysis of dilution series
  hemolytic LC50: 0.368 µg/mL
[1]; rainbow trout erythrocytes
  hemolytic activity compared to amphotericin B: ten fold higher
Oxyrrhis marina; 1 μg/ml, after 24 hours
  reduction of O. marina cell densities: > 90%
Oxyrrhis marina; 0.5 and 1 μg/ml treatments at 1 hour
  cell lysis of O. marina: significant (P<0.05) cell lysis
Oxyrrhis marina; after 1 hour, all KmTx 2 concentrations, O. marina compared to K. micrum exposed cultures
  hemolytic activity remaining in solution: reduced
